Experimental data reported in patent US20250230193A1, “CYCLIC COMPOUND HAVING SELECTIVE KRAS INHIBITORY EFFECT ON HRAS AND NRAS” (CHUGAI SEIYAKU KABUSHIKI KAISHA, priority 2022, published 2025).
Where a SMILES comes first, the peptide text is derived from it. Bridges are numbered along the chain shown (N, C = ends). [ ]: non-standard residue; d: D form. The star is where a group is joined. hPhe(3-Cl-4-CF3) = N[C@@H](CCc1ccc(C(F)(F)F)c(Cl)c1)C(=O)O; NPrPhe(4-CF3) = CCCN[C@@H](Cc1ccc(C(F)(F)F)cc1)C(=O)O; NMeGly(cPent) = CN[C@H](C(=O)O)C1CCCC1; Hyp = O=C(O)[C@@H]1C[C@@H](O)CN1; NMeD = CN[C@@H](CC(=O)O)C(=O)O; NMeL = CN[C@@H](CC(C)C)C(=O)O; Morpholide = C1CN(*)CCO1; NMeA = CN[C@@H](C)C(=O)O; Ac5c = NC1(C(=O)O)CCCC1; Aze = O=C(O)[C@@H]1CCN1; Sar = CNCC(=O)O

How the values were obtained:
[1] = target: GDP-bound HRAS wild-type protein (Homo sapiens, UniProt P01112); assay: Binding to HRAS by surface plasmon resonance (SPR), Single Cycle Kinetics; details: SPR; for HRAS/KRAS (ratio of KD value for HRAS to KD value for KRAS) / HRAS/KRAS (ratio of KD value with respect to HRAS to KD value with respect to KRAS): GDP-bound HRAS wild-type vs GDP-bound KRAS wild-type
GDP-bound HRAS wild-type protein, sequence (P01112 whole entry): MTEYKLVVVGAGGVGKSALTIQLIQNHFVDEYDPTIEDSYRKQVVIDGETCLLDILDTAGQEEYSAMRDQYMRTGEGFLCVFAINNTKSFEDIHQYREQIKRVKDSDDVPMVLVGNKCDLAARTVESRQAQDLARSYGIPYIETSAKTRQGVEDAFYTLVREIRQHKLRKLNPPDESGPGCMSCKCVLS

[2] = target: GDP-bound NRAS wild-type protein (Homo sapiens, UniProt P01111); assay: Binding to NRAS by surface plasmon resonance (SPR), Single Cycle Kinetics; details: SPR; for NRAS/KRAS (ratio of KD value for NRAS to KD value for KRAS) / NRAS/KRAS (ratio of KD value with respect to NRAS to KD value with respect to KRAS): GDP-bound NRAS wild-type vs GDP-bound KRAS wild-type
GDP-bound NRAS wild-type protein, sequence (P01111 whole entry): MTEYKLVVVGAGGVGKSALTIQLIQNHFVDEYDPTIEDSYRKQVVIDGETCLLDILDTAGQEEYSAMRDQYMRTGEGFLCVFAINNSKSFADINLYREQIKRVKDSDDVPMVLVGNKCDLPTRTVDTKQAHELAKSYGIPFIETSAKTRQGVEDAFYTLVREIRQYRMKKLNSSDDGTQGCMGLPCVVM

CCO[C@@H]1C[C@H]2C(=O)NC3(CC(F)(F)C3)C(=O)N(C)[C@@H](C3CCCC3)C(=O)N(C)[C@H](C(=O)N(C)C)CC(=O)N(C)[C@@H](CC(C)C)C(=O)N[C@@H]([C@@H](C)CC)C(=O)N(C)CC(=O)N(C)[C@H]3C/C=C\CCN(C3=O)[C@@H](Cc3ccc(C(F)(F)F)cc3)C(=O)N(C)CC(=O)N[C@@H](CCc3cc(F)c(C(F)(F)F)c(F)c3)C(=O)N2C1 [PP1741]
HRAS/KRAS (ratio of KD value for HRAS to KD value for KRAS) ([1]; KD ratio): B (a compound having 3 or more and less than 10 is denoted as B) | NRAS/KRAS (ratio of KD value for NRAS to KD value for KRAS) ([2]; KD ratio): A (a compound having 10 or more and less than 20 is denoted as A)

CCO[C@@H]1C[C@H]2C(=O)NC3(CCC3)C(=O)N(C)[C@@H](C3CCCC3)C(=O)N(C)[C@H](C(=O)N(C)C)CC(=O)N(C)[C@@H](Cc3cccs3)C(=O)N[C@@H]([C@@H](C)CC)C(=O)N(C)CC(=O)N(C)[C@H]3CCCCCN(C3=O)[C@@H](Cc3ccc(F)cc3)C(=O)N(C)CC(=O)N[C@@H](CCc3cc(F)c(C(F)(F)F)c(F)c3)C(=O)N2C1 [PP1197]
HRAS/KRAS (ratio of KD value with respect to HRAS to KD value with respect to KRAS) ([1]; KD ratio): B (a compound having 3 or more and less than 10 is denoted as B) | NRAS/KRAS (ratio of KD value with respect to NRAS to KD value with respect to KRAS) ([2]; KD ratio): B (a compound having 3 or more and less than 10 is denoted as B)

CCCN1C(=O)[C@@H]2CCN2C(=O)CN(C)C(=O)[C@H]([C@@H](C)CC)NC(=O)[C@H](CC(C)C)N(C)C(=O)C[C@@H](C(=O)N2CCOCC2)N(C)C(=O)[C@H](C2CCCC2)N(C)C(=O)C2(CCCC2)NC(=O)[C@@H]2C[C@@H](OCC)CN2C(=O)[C@H](CCc2ccc(C(F)(F)F)c(Cl)c2)NC(=O)CN(C)C(=O)[C@@H]1Cc1ccc(C(F)(F)F)cc1 [PP0410] ([NMeL]I[Sar][Aze][NPrPhe(4-CF3)][Sar][hPhe(3-Cl-4-CF3)][Hyp](Et)[Ac5c][NMeGly(cPent)][NMeD]-Morpholide; lactam N-11)
HRAS/KRAS (ratio of KD value with respect to GDP-bound HRAS wild-type protein to KD value with respect to KRAS) [1]: B (a compound having 3 or more and less than 10 is denoted as B) | NRAS/KRAS (ratio of KD value with respect to GDP-bound NRAS wild-type protein to KD value with respect to KRAS) [2]: C (A compound having a KD ratio of 0.1 or more and less than 3 is denoted as C)

CCO[C@@H]1C[C@H]2C(=O)NC3(CCC3)C(=O)N(C)[C@@H](C3CCCC3)C(=O)N(C)[C@H](C(=O)N3CCOCC3)CC(=O)N(C)[C@@H](CC(F)F)C(=O)N[C@@H]([C@@H](C)CC)C(=O)N(C)CC(=O)N(C)[C@H]3CCCCCN(C3=O)[C@@H](Cc3ccc(C(F)(F)F)cc3)C(=O)N(C)CC(=O)N[C@@H](CCc3cc(F)c(C(F)(F)F)c(F)c3)C(=O)N2C1 [PP0854]
HRAS/KRAS (ratio of KD value with respect to HRAS to KD value with respect to KRAS) ([1]; KD ratio): B (a compound having 3 or more and less than 10 is denoted as B) | NRAS/KRAS (ratio of KD value with respect to NRAS to KD value with respect to KRAS) ([2]; KD ratio): B (a compound having 3 or more and less than 10 is denoted as B)

CCOC[C@H]1C(=O)N[C@@H]([C@@H](C)CC)C(=O)N(C)CC(=O)N(C)[C@H]2C/C=C\CCN(C2=O)[C@@H](Cc2ccc(C(F)(F)F)cc2)C(=O)N(C)CC(=O)N[C@@H](CCc2ccc(C(F)(F)F)c(OC)c2)C(=O)N2C[C@@H](C)C[C@H]2C(=O)NC2(CC(C)(C)C2)C(=O)N(C)[C@@H](C2CCCC2)C(=O)N(C)[C@H](C(=O)N(C)CC)CC(=O)N1C [PP1993]
HRAS/KRAS (ratio of KD value for HRAS to KD value for KRAS) ([1]; KD ratio): A (a compound having 10 or more and less than 20 is denoted as A) | NRAS/KRAS (ratio of KD value for NRAS to KD value for KRAS) ([2]; KD ratio): A (a compound having 10 or more and less than 20 is denoted as A)

CCCN1C(=O)CN(C)C(=O)[C@@H]2CCN2C(=O)[C@H]([C@@H](C)CC)NC(=O)[C@H](CC(C)C)N(C)C(=O)C[C@@H](C(=O)N2CCOCC2)N(C)C(=O)[C@H](C2CCCC2)N(C)C(=O)C2(CCCC2)NC(=O)[C@@H]2CCCN2C(=O)[C@H](CCc2ccc(C(F)(F)F)c(Cl)c2)NC(=O)CN(C)C(=O)[C@@H]1Cc1ccc(C(F)(F)F)cc1 [PP0158] ([NMeL]I[Aze][Sar][NPrPhe(4-CF3)][Sar][hPhe(3-Cl-4-CF3)]P[Ac5c][NMeGly(cPent)][NMeD]-Morpholide; lactam N-11)
HRAS/KRAS (ratio of KD for GDP-bound HRAS wild-type to KD for KRAS) [1]: B (a compound having 3 or more and less than 10 is denoted as B) | NRAS/KRAS (ratio of KD for GDP-bound NRAS wild-type to KD for KRAS) [2]: A (a compound having 10 or more and less than 20 is denoted as A)

CCCN1C(=O)[C@@H]2CCN2C(=O)[C@H](C)N(C)C(=O)[C@H]([C@@H](C)CC)NC(=O)[C@H](CC(C)C)N(C)C(=O)C[C@@H](C(=O)N2CCOCC2)NC(=O)[C@H](C2CCCC2)N(C)C(=O)C2(CCCC2)NC(=O)[C@@H]2CCCN2C(=O)[C@H](CCc2ccc(C(F)(F)F)c(Cl)c2)NC(=O)CN(C)C(=O)[C@@H]1Cc1ccc(C(F)(F)F)cc1 [PP0343] ([NMeL]I[NMeA][Aze][NPrPhe(4-CF3)][Sar][hPhe(3-Cl-4-CF3)]P[Ac5c][NMeGly(cPent)]D-Morpholide; lactam N-11)
HRAS/KRAS (ratio of KD for GDP-bound HRAS wild-type to KD for KRAS) [1]: B (a compound having 3 or more and less than 10 is denoted as B) | NRAS/KRAS (ratio of KD for GDP-bound NRAS wild-type to KD for KRAS) [2]: C (A compound having a KD ratio of 0.1 or more and less than 3 is denoted as C)

CCOC[C@H]1C(=O)N[C@@H]([C@@H](C)CC)C(=O)N(C)CC(=O)N(C)[C@H]2C/C=C\CCN(C2=O)[C@@H](CC2CCC(F)(F)CC2)C(=O)N(C)CC(=O)N[C@@H](CCc2ccc(C(F)(F)F)c(Cl)c2)C(=O)N2C[C@@H](C)C[C@H]2C(=O)NC2(CC(C)(C)C2)C(=O)N(C)[C@@H](C(CC)CC)C(=O)N(C)[C@H](C(=O)N(C)C)CC(=O)N1C [PP2475]
HRAS/KRAS (ratio of KD value with respect to HRAS to KD value with respect to KRAS) [1]: A (a compound having 10 or more and less than 20 is denoted as A) | NRAS/KRAS (ratio of KD value with respect to NRAS to KD value with respect to KRAS) [2]: AA (a compound having 20 or more is denoted as AA)

CCO[C@@H]1C[C@H]2C(=O)NC3(CCC3)C(=O)N(C)[C@@H](C3CCCC3)C(=O)N(C)[C@H](C(=O)N(C)C)CC(=O)N(C)[C@@H](CC(F)(F)F)C(=O)N[C@@H]([C@@H](C)CC)C(=O)N(C)CC(=O)N(C)[C@H]3C/C=C\CCN(C3=O)[C@@H](Cc3ccc(C(F)(F)F)cc3)C(=O)N(C)CC(=O)N[C@@H](CCc3cc(F)c(C(F)(F)F)c(F)c3)C(=O)N2C1 [PP1124]
HRAS/KRAS (ratio of KD value with respect to HRAS to KD value with respect to KRAS) ([1]; KD ratio): B (a compound having 3 or more and less than 10 is denoted as B) | NRAS/KRAS (ratio of KD value with respect to NRAS to KD value with respect to KRAS) ([2]; KD ratio): A (a compound having 10 or more and less than 20 is denoted as A)

CCCN1C(=O)CN(C)C(=O)CN(C)C(=O)[C@H]([C@@H](C)CC)NC(=O)[C@H](CC(C)C)N(C)C(=O)C[C@@H](C(=O)N(C)C)NC(=O)[C@H](C2CCCC2)N(C)C(=O)C2(CCCC2)NC(=O)[C@@H]2C[C@@H](OCC)CN2C(=O)[C@H](CCc2ccc(C(F)(F)F)c(Cl)c2)NC(=O)CN(C)C(=O)[C@@H]1Cc1ccc(C(F)(F)F)cc1 [PP0359] ([NMeL]I[Sar][Sar][NPrPhe(4-CF3)][Sar][hPhe(3-Cl-4-CF3)][Hyp](Et)[Ac5c][NMeGly(cPent)]D-NMe2; lactam N-11)
HRAS/KRAS (ratio of KD for GDP-bound HRAS wild-type to KD for KRAS) [1]: B (a compound having 3 or more and less than 10 is denoted as B) | NRAS/KRAS (ratio of KD for GDP-bound NRAS wild-type to KD for KRAS) [2]: B (a compound having 3 or more and less than 10 is denoted as B)

CCO[C@@H]1C[C@H]2C(=O)NC3(CCC3)C(=O)N(C)[C@@H](C3CCCC3)C(=O)N(C)[C@H](C(=O)N(C)C)CC(=O)N(C)[C@@H](CC(C)(C)C)C(=O)N[C@@H]([C@@H](C)CC)C(=O)N(C)CC(=O)N(C)[C@H]3CCCCN(C3=O)[C@@H](Cc3ccc(C(F)(F)F)cc3)C(=O)N(C)CC(=O)N[C@@H](CCc3cc(F)c(C(F)(F)F)c(F)c3)C(=O)N2C1 [PP0699]
HRAS/KRAS (ratio of KD value with respect to GDP-bound HRAS wild-type protein to KD value with respect to KRAS) [1]: C (A compound having a KD ratio of 0.1 or more and less than 3 is denoted as C) | NRAS/KRAS (ratio of KD value with respect to GDP-bound NRAS wild-type protein to KD value with respect to KRAS) [2]: C (A compound having a KD ratio of 0.1 or more and less than 3 is denoted as C)
